Like-named read-outs stand apart in the source and are kept apart here.

The subject of one assay is SREBP pathway. The experiment in a line: SREBP luciferase reporter gene system (SRE-luciferase assay). The assay is classed as cell-based, human. The conditions noted are these: Huh-7/SRE-luc cells, sterol-deficient medium, 0.01-10 µM. The method, boiled down: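 Readout was SRE-driven luciferase normalised to GFP fluorescence in lysates of stably transfected Huh-7/SRE-luc hepatoma cells. Compounds (0.01, 0.03, 0.1, 0.3, 1.0, 3.0, 10 µM; DMSO control) were applied for 16 h in sterol-depleted medium with 2 µM lovastatin and 10 µM mevalonate; IC50 from variable-slope fit.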

Assay [1] has as its system Fatty Acid Synthase (FASN) gene. The assay is described as follows: Inhibition of FASN gene expression (qPCR) in Huh-7 cells. The assay is classed as cell-based, human. The settings on record: read-out: FASN IC50, Huh-7 cells, starvation medium, 16 hours, qPCR, class symbols. The method, then:
Huh-7 cells (purchased from ATCC) were cultured in DMEM medium (containing 10% fetal bovine serum LONSERA S711-001S) at 37°C in a 5% CO2 incubator. After 24 hours, the original medium was aspirated and replaced with DMEM starvation medium (containing 5% lipoprotein deficient serum (LPDS), 2 µM lovastatin, and 10 µM mevalonate). The control group was treated with dimethyl sulfoxide (DMSO), while the compound treatment groups were treated with different concentrations of compounds. The highest concentration of the compound was 3000 nM, with 3-fold dilutions, totaling 5 concentrations. The cells were cultured for 16 hours. Cell lysis was performed, followed by reverse transcription from cells to cDNA, and qPCR was performed to detect the expression of the SREBP target gene Fatty Acid Synthase (FASN) gene (FASN gene forward primer sequence: 5'-[…]-3', reverse primer sequence: 5'-[…]-3'). The IC50 was calculated. The test data for each test compound were analyzed using Prism software (with the DMSO-treated group as the reference to calculate the compound inhibition rate, fitted using the Prism log(inhibitor) vs. responseVariable slope (four-parameter) model, calculation formula: Y = Bottom + (Top - Bottom)/(1 + 10^((LogIC50 - X) × HillSlope))), to obtain the IC50 parameters of the compounds. Table 4: Inhibition results of FASN gene expression by compounds from some examples

For `C[C@H](CCCC(O)c1ccc2c(n1)OC(F)(F)O2)[C@H]1CC[C@H]2[C@H]3[C@H](CC[C@]12C)[C@@]1(C)CC[C@H](O)[C@H](O)[C@@H]1CC3(F)F` (single isomer, unassigned) [Compound 266], the values for the IC50 (in the assay on SREBP pathway (16 hours); in assay [1]) were 0.099 µM and below 200 nM, respectively.

On to `COc1nc(F)cc(F)c1[C@@H](O)CCC[C@@H](C)[C@H]1CC[C@H]2[C@H]3[C@H](CC[C@]12C)[C@@]1(C)CC[C@H](O)[C@H](O)[C@@H]1CC3(F)F` (single isomer, unassigned) [Compound 255], for which the IC50 in the assay with SREBP pathway (Homo sapiens, Huh-7, 16 h) was 0.107 µM; in assay [1] (Homo sapiens, Huh-7, 16 h) it was 200 to 500 nM.

`CCOc1nc(F)ccc1[C@@H](O)CCC[C@@H](C)[C@H]1CC[C@H]2[C@H]3[C@H](CC[C@]12C)[C@@]1(C)CC[C@H](O)[C@H](O)[C@@H]1CC3(F)F` (single isomer, unassigned) [Compound 289]: the IC50 with SREBP pathway (Homo sapiens, Huh-7, 16 h) was 0.342 µM; in assay [1] (Homo sapiens, Huh-7, 16 h), below 200 nM.

In the case of `C[C@H](CCCC(O)c1nc2ccccc2[nH]1)[C@H]1CC[C@H]2[C@H]3[C@H](CC[C@]12C)[C@@]1(C)CC[C@H](O)[C@H](O)[C@@H]1CC3(F)F` (stereo partly drawn) [Compound 303, (1R,3aS,3bS,5aR,6R,7 S,9aR,9bS,11aR)-4,4-Difluoro-1-[(2R)-6-hydroxy-6-(1H-benzo[d]imidazol-2-yl)hexan-2-yl]-9a,11a-dimethylhexadecahydro-1H-cyclopenta[1,2-a]phenanthrene-6,7-diol], the IC50 with SREBP pathway (Homo sapiens, Huh-7, 16 h) is 0.109 µM; in assay [1] (Homo sapiens, Huh-7, 16 h), below 200 nM.

In the case of `C[C@H](CCCC(O)c1cccc2cnn(C)c12)[C@H]1CC[C@H]2[C@H]3[C@H](CC[C@]12C)[C@@]1(C)CC[C@H](O)[C@H](O)[C@@H]1CC3(F)F` (single isomer, unassigned) [Compound 244, (1R,3aS,3bS,5aR,6R,7S,9aR,9bS,11aR)-4,4-difluoro-1-[(2R,6R)-6-hydroxy-6-(1-methylindazol-7-yl)hexan-2-yl]-9a,11a-dimethylhexadecahydro-1H-cyclopenta[1,2-a]phenanthrene-6,7-diol or (1R,3aS,3bS,5aR,6R,7S,9aR,9bS,11aR)-4,4-difluoro-1-[(2R,6S)-6-hydroxy-6-(1-methylindazol-7-yl)hexan-2-yl]-9a,11a-dimethylhexadecahydro-1H-cyclopenta[1,2-a]phenanthrene-6,7-diol], the IC50 in the assay on SREBP pathway (16 hours) was 0.06 µM; in assay [1] (Homo sapiens, Huh-7, 16 h), below 200 nM.

Take `COc1nc(C)ccc1C(O)CCC[C@@H](C)[C@H]1CC[C@H]2[C@H]3[C@H](CC[C@]12C)[C@@]1(C)CC[C@H](O)[C@H](O)[C@@H]1CC3(F)F` (single isomer, unassigned) [Compound 218, (1R,3aS,3bS,5aR,6R,7S,9aR,9bS,11aR)-4,4-difluoro-1-[(2R,6R)-6-hydroxy-6-(2-methoxy-6-methylpyridin-3-yl)hexan-2-yl]-9a,11a-dimethylhexadecahydro-1H-cyclopenta[1,2-a]phenanthrene-6,7-diol or (1R,3aS,3bS,5aR,6R,7S,9aR,9bS,11aR)-4,4-difluoro-1-[(2R,6S)-6-hydroxy-6-(2-methoxy-6-methylpyridin-3-yl)hexan-2-yl]-9a,11a-dimethylhexadecahydro-1H-cyclopenta[1,2-a]phenanthrene-6,7-diol]: the IC50 in the assay with SREBP pathway (16 hours) came out at 0.141 µM.

`C[C@H](CCC[C@@H](O)c1n[nH]c2ccccc12)[C@H]1CC[C@H]2[C@H]3[C@H](CC[C@]12C)[C@@]1(C)CC[C@H](O)[C@H](O)[C@@H]1CC3(F)F` (stereo in doubt) [Compound 320, (1R,3aS,3bS,5aR,6R,7S,9aR,9bS,11aR)-4,4-difluoro-1-[(2R,6R)-6-hydroxy-6-(1H-indazol-3-yl)hexan-2-yl]-9a,11a-dimethylhexadecahydro-1H-cyclopenta[1,2-a]phenanthrene-6,7-diol]: in the assay with SREBP pathway (Homo sapiens, Huh-7, 16 h), the IC50 was determined as 0.207 µM.

These data come from patent publication EP4752152A1, “STEROID COMPOUND, AND PREPARATION METHOD THEREFOR AND USE THEREOF” (Cholesgen (Shanghai) Co.Ltd., priority 2023, dated 2025).
